In patent US20060121449A1, “Method for selection of compounds which inhibit clonal cell growth and use thereof” (priority 2002, published 2006):
Entries after “also recorded” stand apart in the source; their conditions may differ.

Assays:
[1] = tested on: polyoma virus transformed BHK21/c13 cells, line S100T1;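 also: soft agar cultures in 24-well plates with a cell density gradient in the top layer, compounds applied from DMSO stocks, clonal growth scored in sparse versus dense areas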;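 as to Clonal growth, H high density area of cell gradient, High: grades rise with clonal growth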;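 as to Clonal growth, H high density area of cell gradient, Low: grades rise with clonal growth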;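 as to Clonal growth, H high density area of cell gradient, Medium: grades rise with clonal growth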;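 as to Clonal growth, L low density area of cell gradient, High: grades rise with clonal growth and minus or plus-minus means none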;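 as to Clonal growth, L low density area of cell gradient, Low: grades rise with clonal growth and minus or plus-minus means none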
Protocol: (§1) The cells should be grown in a top agar layer to avoid growth on the bottom surface. […] Both densely seeded and sparsely seeded areas were photographed.
(§2) Cells: The polyoma virus transformed offspring of BHK21/c13, S100T1, was grown on 75 cm^2 flasks on Eagles medium with 5% foetal calf serum. […] Foetal calf serum (0.7 ml) was added to each harvest. After low speed centrifugation the supernatant was discarded and the cells were dispersed in 1 ml FBS.
(§3) The concentration of ultra low gelling temperature agarose (Sigma) of the top agar layer with cells was also 0.8%. […] The addition of cells was performed at the same side of the wells in order to create similar cell density gradients. Finally the top layer agar was consolidated in the refrigerator.
(§4) After that it was incubated at 37 degrees in 5% CO2 atmosphere.
(§5) Agar cultures were prepared in Falcon 24 well tissue culture plate. Each well contained two agar layers of 0.3 ml.
(§6) Agar cultures were prepared in wells of Falcon 24 well tissue culture plate. Each contained two agar layers of 0.3 ml. […] The medium contained Eagles MEM and 10% foetal bovine serum (FBS).
(§7) The compounds were first solved in DMSO in 20 mM concentration and then diluted in medium. The top layer needed 60-90 minutes in the refrigerator for solidification before incubation in 37° C. with 5% CO2 atmosphere.
(§8) In this experiment the inhibitor was added to the bottom layer in order to get an easier way for making the cell density gradient. One side of the Falcon 24 well plate was elevated 12 degrees in the refrigerator for 60-90 minutes to solidify the bottom layer in an oblique position When then solidifying the cell containing top soft agar layer in horizontal position, the cell gradient constantly became good across the well. […] Another 90 minutes were spent in the refrigerator to consolidate the soft agar layer with cells in a horizontal position. Both layers contained 0.8% agarose, Eagles MEM and 10% FBS.
(§9) Tilting the plate 12 degrees when solidifying the bottom layer with the drug and casting the top layer with cells horizontally made a stable cell gradient.
(§10) The indicated compounds were added to soft agar cultures of the polyoma virus transformed cell line S100T1 of BHK21/c13 cells (Table 1). Agar cultures were prepared in wells of a Falcon 24 well tissue culture plate. The wells contained two agar layers of 0.3 ml. […] The bottom medium was identical, but without cells.
(§11) The compounds were first solved in DMSO in 20 mM concentration and then diluted in bottom medium. The agar layers needed 60-90 minutes in the refrigerator for consolidation before incubation at 37° C. in 5% CO2 atmosphere.

[2] = tested on: polyoma virus transformed BHK21/c13 cells, line S100T1; assay: Collocation inhibition test: clonal growth in sparsely and densely seeded areas of a cell density gradient of S100T1 cells in soft agar (Exp 13, 17, 19-26); conditions: for Significance: Exp 17 day 14;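 as to Clonal growth, H high density area of cell gradient, High: grades rise with clonal growth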;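 as to Clonal growth, H high density area of cell gradient, Low: grades rise with clonal growth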;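 as to Clonal growth, H high density area of cell gradient, Medium: grades rise with clonal growth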;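 as to Clonal growth, L low density area of cell gradient, High: grades rise with clonal growth and minus or plus-minus means none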;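 as to Clonal growth, L low density area of cell gradient, Low: grades rise with clonal growth and minus or plus-minus means none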;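 as to all read-outs here: soft agar cultures in 24-well plates with a cell density gradient in the top layer, compounds applied from DMSO stocks, clonal growth scored in sparse versus dense areas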
Protocol: as §1, §2, §3, §4, §5, §6, §7, §8, §9, §10, §11

[3] = preliminary results, Exp 13-18, 21-26, high concentration
[4] = preliminary results, Exp 13-18, 21-26, low concentration
[5] = preliminary results, Exp 13-18, 21-26, medium concentration

## COc1cc([C@@H]2c3cc4c(cc3[C@@H](O[C@@H]3O[C@@H]5CO[C@@H](C)O[C@H]5[C@H](O)[C@H]3O)[C@H]3COC(=O)[C@H]23)OCO4)cc(OC)c1O [Etoposide, reference compound]
[1]
  Toxicity for body or dense cell populations: yes
[2]; Exp 17
  Inhibition of cells in crowded areas: induce the best inhibition of cells in crowded areas
[2]; Exp 17, 144000 S100T1 cells/well
  Effect on growth in high- and low-density areas: growth inhibition of both high and low-density areas; also recorded: significant inhibition of growth in crowded areas
[2]; Exp 17, a: close to densely seeded cell areas, High: Colchicine 1, Podophyllotoxin 3, Etoposide 200, 4-OH—OPB 6.7 μM in wells, DMSO 29.2 μl
  Clonal growth, results read on the day 14: (+)
[2]; Exp 17, a: close to densely seeded cell areas, Low: Colchicine 0.1, Podophyllotoxin 0.3, Etoposide 20, 4-OH—OPB 0.67 μM in wells, DMSO 1.16 μl
  Clonal growth, results read on the day 14: +
[2]; Exp 17, a: close to densely seeded cell areas, Medium: Colchicine 0.3, Podophyllotoxin 0.9, Etoposide 60, 4-OH—OPB 2 μM in wells, DMSO 6.8 μl
  Clonal growth, results read on the day 14: +
[2]; Exp 17, b: sparsely seeded areas in the same agar culture, High: Colchicine 1, Podophyllotoxin 3, Etoposide 200, 4-OH—OPB 6.7 μM in wells, DMSO 29.2 μl
  Clonal growth, results read on the day 14: (+)
[2]; Exp 17, b: sparsely seeded areas in the same agar culture, Low: Colchicine 0.1, Podophyllotoxin 0.3, Etoposide 20, 4-OH—OPB 0.67 μM in wells, DMSO 1.16 μl
  Clonal growth, results read on the day 14: (+)
[2]; Exp 17, b: sparsely seeded areas in the same agar culture, Medium: Colchicine 0.3, Podophyllotoxin 0.9, Etoposide 60, 4-OH—OPB 2 μM in wells, DMSO 6.8 μl
  Clonal growth, results read on the day 14: (+)
[2]; Exp 17, compared with 4-OH-OPB
  Clones in sparsely seeded locations of the agar: allow the growth of a few small clones in sparsely seeded locations of the agar; also recorded: to allow the growth of a few small clones in sparsely
[2]; a: close to densely seeded cell areas, High: Colchicine 1, Podophyllotoxin 3, Etoposide 200, 4-OH—OPB 6.7 μM in wells, DMSO 29.2 μl
  Significance: Possible
[2]; a: close to densely seeded cell areas, Low: Colchicine 0.1, Podophyllotoxin 0.3, Etoposide 20, 4-OH—OPB 0.67 μM in wells, DMSO 1.16 μl
  Significance: No
[2]; a: close to densely seeded cell areas, Medium: Colchicine 0.3, Podophyllotoxin 0.9, Etoposide 60, 4-OH—OPB 2 μM in wells, DMSO 6.8 μl
  Significance: No
[2]; b: sparsely seeded areas, High: Colchicine 1, Podophyllotoxin 3, Etoposide 200, 4-OH—OPB 6.7 μM in wells, DMSO 29.2 μl
  Significance: Possible
[2]; b: sparsely seeded areas, Low: Colchicine 0.1, Podophyllotoxin 0.3, Etoposide 20, 4-OH—OPB 0.67 μM in wells, DMSO 1.16 μl
  Significance: Possible
[2]; b: sparsely seeded areas, Medium: Colchicine 0.3, Podophyllotoxin 0.9, Etoposide 60, 4-OH—OPB 2 μM in wells, DMSO 6.8 μl
  Significance: Possible
[2]; ability of cells to leave a tumour, grow and infiltrate locally or grow in sparsely seeded areas, concluded from Exp 17
  Control of metastatic cells leaving tumour: probably not
[2]; [3]
  Clonal growth, H high density area of cell gradient, High: (+)
  Clonal growth, L low density area of cell gradient, High: (+)
[2]; [4]
  Clonal growth, H high density area of cell gradient, Low: +
  Clonal growth, L low density area of cell gradient, Low: (+)
[2]; [5]
  Clonal growth, H high density area of cell gradient, Medium: +
  Clonal growth, L low density area of cell gradient, Medium: (+)
[2]; single cells or very few cells spread to distant sites, concluded from Exp 17
  Control of settlement of metastatic cells: partly
